For the experiment, the system named is DIO mice. The experiment can be described thus: Weight loss recovery of mPD5 relative to liraglutide. The experiment is classed as in vivo. The conditions noted are these: 0.09 mg kg−1 s.c. once daily for 9 days.

On to liraglutide, for which the “Weight regain upon treatment cessation” value is given as “promptly initiated weight regain upon treatment cessation”.

The values above are taken from article PMC10906926 (Science Advances, 2024).
